From patent US8557823B2, “Family of PFKFB3 inhibitors with anti-neoplastic activities” (Advanced Cancer Therapeutics, LLC, priority 2007, dated 2013)
≈ marks a conversion by molar mass, not a printed value. Counter-ions that a name gives are not always drawn. Like-named read-outs stand apart in the source and are kept apart here. Blank lines part the entries; values can stand above or below the molecule they belong to.

Tests used:
Jurkat = assay: Cancer cell proliferation, Alamar Blue assay 72 hours, Jurkat; type: cell-based
Method: (§1) The ability of the compounds described herein to kill or inhibit the proliferation of cancer cells was measured using either the MTT assay, the Alamar Blue assay, or the Cell Titer Glow® assay using 48 or 72 hours exposure. […] The procedures are briefly described below. Cells of the desired tumor cell line were plated at 2×10^5 cells/ml in 96 well plates. Twice the indicated concentrations of the compounds of the invention were added to cells the following day in an equal volume of media. 72 hours later, cells were lysed and subjected to ATP determination using the CellTiter Glo-Luminescent Cell Viability Assay kit (Promega, Madison, Wis.). Experiments were done in triplicate. When using the MTT assay or the Alamar blue assay, the experimental conditions are essentially similar; at the end of the incubation period, 20 microl of the MTT solution is added per well and the samples are incubated for an additional four hours, rinsed and the absorbance at 570 nm measured. Results for the inhibition of cells proliferation are reported as IC50 as commonly done (the concentration leading to a 50% inhibition of proliferation of the cell population) and are listed in the Tables below. Table 4 lists the IC50 for the compounds of the invention in several cell lines including Jurkat, Calu-6, NCI-H82, U937, or NCI-H1437 cancer cell lines. Table 5 lists the IC50 of PFK-070 in a panel of 10 cell lines.

Calu-6 = assay: Cancer cell proliferation, Alamar Blue assay 72 hours, Calu-6; type: cell-based; conditions: Homo sapiens
Method: as §1

U937 = assay: Cancer cell proliferation, Alamar Blue assay 72 hours, U937; type: cell-based; conditions: Homo sapiens, U-937
Method: as §1

NCI-H82 = assay: Cancer cell proliferation, Alamar Blue assay 72 hours, NCI-H82; type: cell-based; conditions: Homo sapiens
Method: as §1

[1] = Solubility in dosing solution Cre:EtOH:Saline; type: physicochemical; conditions: Cremophor:EtOH:Saline 5:5:90, aqueous with cosolvent or surfactant or cyclodextrin, kinetic from dmso stock; 5:5:90 Cremophor:EtOH:Saline, after 24 hours at room temperature
From the text: (§2) Chemical properties of the compounds of the invention were investigated, mainly the solubility in several solvents and pharmaceutically accepted excipients or dosing solutions and the stability of these solutions. […] The increase in solubility when comparing the effect of chemical substituents is unpredictable and surprising if one compares the solubility values of PFK-070 to PFK-091 and PFK-070 to PFK-141 and 145 in a dosing solution that could be used to treat cancer patients (See Table 8A below). Briefly, selected compounds of the invention are dissolved in a small volume of the solvents/excipients of interest (Cremophor, or Cremophor:etoh or Tween80:etoh) at room temperature and diluted 1:9 in saline and left at room temperature for over 8 or 24 hours. Both the physical (absence of a precipitate) and the chemical stability (less than 5% degradation) of the solutions are measured (observation and HPLC after filtration).

[2] = molecular target: T1, PFKFB3, the recombinant protein (Homo sapiens, UniProt Q16875); assay: Inhibition of recombinant PFKFB3 (Adapta Kinase assay); type: biochemical; conditions: read-out: IC50 EArec
T1 construct: made in house; host or cells: E. coli
Method: PFKFB3 was prepared by expression in E. coli and purified by GST column and column chromatography. […] The recombinant protein was pure and active as determined by the results of a kinase activity assay commercially available (Adapta® Kinase assay).

NCI-H1437 = assay: Cancer cell proliferation, Alamar Blue assay 72 hours, NCI-H1437; type: cell-based; conditions: Homo sapiens
Method: as §1

[3] = Microsomal stability in human liver microsomes; type: in vitro ADME; conditions: 0 min
Method: Microsomal stability in vitro in different biologic media (liver microsomes, S9 fraction, hepatocytes) and species is ascertained to evaluate the rate at which a compound undergoes metabolism in the experimental in vitro conditions. […] Experimental conditions are briefly described here: the stability in human liver microsomes of several compounds was done over […] at 37° C. using pooled mixed gender human liver microsomes. These liver microsomes were prepared at 1.0 mg/ml of microsomal protein in a 100 mM potassium phosphate pH 7.4 buffer with 1 mM NADPH. The media was incubated at 37° C. with the compound in solution in DMSO. The concentration of the compound was followed by LC/MS-MS as a function of time. […] Testosterone was used as a positive control. The same experiment was performed with mouse, rat or dog liver microsomes instead of human liver microsomes.

[4] = Solution stability in clear and amber vials; type: physicochemical; conditions: Cre:EtOH:Saline
From the text: as §2
Furthermore, the solution stability of the compounds was investigated and it was discovered that, in normal conditions, they lack the appropriate solution stability as they undergo a rapid photoisomerization; this lack of solution stability is such that methods to prevent these compounds from reacting in solutions are necessary if these compounds are to be used as chemotherapeutic agents for the treatment of cancer patients.

[5] = Solubility profile in aqueous media; type: physicochemical; conditions: 23 °C, aqueous buffer

T1 sequence (Q16875 whole entry): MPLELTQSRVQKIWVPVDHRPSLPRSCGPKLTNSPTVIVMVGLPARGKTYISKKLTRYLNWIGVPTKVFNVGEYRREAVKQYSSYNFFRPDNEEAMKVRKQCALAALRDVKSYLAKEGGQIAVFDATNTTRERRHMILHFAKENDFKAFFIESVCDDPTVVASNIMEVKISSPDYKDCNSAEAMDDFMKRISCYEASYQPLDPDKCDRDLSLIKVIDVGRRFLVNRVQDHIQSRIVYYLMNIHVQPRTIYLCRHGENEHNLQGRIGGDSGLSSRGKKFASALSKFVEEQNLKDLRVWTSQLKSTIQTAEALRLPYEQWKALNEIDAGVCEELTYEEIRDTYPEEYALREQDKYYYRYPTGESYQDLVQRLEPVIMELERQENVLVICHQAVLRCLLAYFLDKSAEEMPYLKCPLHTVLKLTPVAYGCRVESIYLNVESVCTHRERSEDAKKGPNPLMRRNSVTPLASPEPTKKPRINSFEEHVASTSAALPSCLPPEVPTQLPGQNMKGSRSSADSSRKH

Structure (SMILES): O=C(/C=C/c1ccnc2ccccc12)c1ccncc1 [ACT-PFK-013, 1-Pyridin-4-yl-3-quinolin-4-yl-propenone]
IC50 (Jurkat; Homo sapiens, Jurkat, 72 h): 1000 nM

Structure (SMILES): O=C(/C=C/c1cnc2ccccc2c1)c1ccncc1 [ACT-PFK-014, 1-Pyridin-4-yl-3-quinolin-3-yl-propenone]
IC50 (Jurkat): 4000 nM

Structure (SMILES): O=C(/C=C/c1ccc2ccccc2n1)c1cccnc1 [ACT-PFK-035, 1-Pyridin-3-yl-3-quinolin-2-yl-propenone]
IC50 (Jurkat; Homo sapiens, Jurkat, 72 h): 2500 nM

Structure (SMILES): O=C(/C=C/c1ccnc2ccccc12)c1cccnc1 [ACT-PFK-036, 1-Pyridin-3-yl-3-quinolin-4-yl-propenone]
IC50 (Jurkat; Homo sapiens, Jurkat, 72 h): 2500 nM

Structure (SMILES): O=C(/C=C/c1ccc2cccnc2c1)c1cccnc1 [ACT-PFK-037, 1-Pyridin-3-yl-3-quinolin-7-yl-propenone]
IC50 (Jurkat; Homo sapiens, Jurkat, 72 h): 2500 nM

Structure (SMILES): O=C(/C=C/c1cccc2ncccc12)c1ccncc1 [ACT-PFK-038, 1-Pyridin-4-yl-3-quinolin-5-yl-propenone]
IC50 (Jurkat; Homo sapiens, Jurkat, 72 h): 1000 nM

Structure (SMILES): O=C(/C=C/c1cccc2ncccc12)c1cccnc1 [ACT-PFK-039, 1-Pyridin-3-yl-3-quinolin-5-yl-propenone]
IC50 (Jurkat; Homo sapiens, Jurkat, 72 h): 1000 nM

Structure (SMILES): O=C(/C=C/c1cccc2cccnc12)c1ccncc1 [ACT-PFK-047, 1-Pyridin-4-yl-3-quinolin-8-yl-propenone]
IC50 (Jurkat; Homo sapiens, Jurkat, 72 h): 14000 nM

Structure (SMILES): O=C(/C=C/c1cnc2ccccc2c1)c1cccnc1 [ACT-PFK-048, 1-Pyridin-3-yl-3-quinolin-3-yl-propenone]
IC50 (Jurkat; Homo sapiens, Jurkat, 72 h): 17000 nM

Structure (SMILES): O=C(/C=C/c1cnc2ccccc2c1)c1ccncc1 [ACT-PFK-055, 1-Pyridin-4-yl-3-quinolin-3-yl-propenone]
IC50 (Jurkat): > 100000 nM

Structure (SMILES): O=C(/C=C/c1cc(O)c2ccccc2n1)c1ccncc1 [ACT-PFK-066, 3-(4-Hydroxy-quinolin-2-yl)-1-pyridin-4-yl-propenone]
IC50 (Jurkat; Homo sapiens, Jurkat, 72 h): 2400 nM
IC50 (Calu-6): 3800 nM
IC50 (U937): 1300 nM

Structure (SMILES): O=C(/C=C/c1ccc2cccc(O)c2n1)c1cccnc1 [ACT-PFK-067, 3-(8-Hydroxy-quinolin-2-yl)-1-pyridin-3-yl-propenone]
IC50 (Jurkat; Homo sapiens, Jurkat, 72 h): 3100 nM
IC50 (Calu-6): 2400 nM
IC50 (U937): 830 nM

Structure (SMILES): Cc1ccc(C(=O)/C=C/c2ccc3ccccc3n2)cc1 [ACT-PFK-068, 3-Quinolin-2-yl-1-p-tolyl-propenone]
IC50 (Jurkat; Homo sapiens, Jurkat, 72 h): 5500 nM
IC50 (Calu-6): 4800 nM
IC50 (U937): 1600 nM

Second part, the molecule after the results:

IC50 (Jurkat; Homo sapiens, Jurkat, 72 h): 4800 nM
IC50 (Calu-6): 5000 nM
IC50 (U937): 1900 nM
Structure (SMILES): Cc1ccc(C(=O)/C=C/c2ccc3cccc(O)c3n2)cc1 [ACT-PFK-071, 3-(8-Hydroxy-quinolin-2-yl)-1-p-tolyl-propenone]

IC50 (Jurkat; Homo sapiens, Jurkat, 72 h): 600 nM
IC50 (Calu-6): 800 nM
IC50 (U937): 200 nM
Structure (SMILES): Cc1ccc(C(=O)/C=C/c2cc(O)c3ccccc3n2)cc1 [ACT-PFK-073, 3-(4-Hydroxy-quinolin-2-yl)-1-p-tolyl-propenone]

IC50 (Jurkat; Homo sapiens, Jurkat, 72 h): 80500 nM
IC50 (NCI-H82): 22500 nM
IC50 (Calu-6): > 100000 nM
IC50 (U937): 19300 nM
Structure (SMILES): O=C(/C=C/c1ccc2ccccc2n1)c1ccccc1O [ACT-PFK-086, 1-(2-Hydroxy-phenyl)-3-quinolin-2-yl-propenone]

IC50 (Jurkat; Homo sapiens, Jurkat, 72 h): 3700 nM
IC50 (NCI-H82): 2300 nM
IC50 (Calu-6): 1600 nM
IC50 (U937): 1300 nM
Structure (SMILES): O=C(/C=C/c1ccc2ccccc2n1)c1ccc(O)cc1 [ACT-PFK-087, 1-(4-Hydroxy-phenyl)-3-quinolin-2-yl-propenone]

IC50 (Jurkat; Homo sapiens, Jurkat, 72 h): > 100000 nM
IC50 (NCI-H82): 38500 nM
IC50 (Calu-6): > 100000 nM
IC50 (U937): 17200 nM
Structure (SMILES): Nc1ccccc1C(=O)/C=C/c1ccc2ccccc2n1 [ACT-PFK-088, 1-(2-Amino-phenyl)-3-quinolin-2-yl-propenone]

IC50 (Jurkat; Homo sapiens, Jurkat, 72 h): 4200 nM
IC50 (NCI-H82): 900 nM
IC50 (Calu-6): 2100 nM
IC50 (U937): 1600 nM
Structure (SMILES): Nc1ccc(C(=O)/C=C/c2ccc3ccccc3n2)cc1 [ACT-PFK-089, 1-(4-Amino-phenyl)-3-quinolin-2-yl-propenone]

solubility at 24 h [1]: 800 µg/mL (≈ 2920 µM)
IC50 (Jurkat; Homo sapiens, Jurkat, 72 h): 900 nM
IC50 (NCI-H82): 1100 nM
IC50 [2]: 210 ± 51 nM
IC50 (NCI-H1437): 5400 nM
Mean metabolized (%) [3]: 0%
Structure (SMILES): Cc1cccc2ccc(/C=C/C(=O)c3ccncc3)nc12 [ACT-PFK-141, 3-(8-Methyl-quinolin-2-yl)-1-pyridin-4-yl-propenone]

IC50 (Jurkat; Homo sapiens, Jurkat, 72 h): 1700 nM
IC50 (NCI-H82): 2600 nM
IC50 [2]: 654 ± 95 nM
IC50 (NCI-H1437): 4300 nM
Structure (SMILES): O=C(/C=C/c1ccc2ccccc2n1)c1ccnc(F)c1 [ACT-PFK-143, 1-(2-Fluoro-pyridin-4-yl)-3-quinolin-2-yl-propenone]

solubility at 24 h [1]: 100 µg/mL (≈ 359 µM)
IC50 (Jurkat; Homo sapiens, Jurkat, 72 h): 900 nM
IC50 (NCI-H82): 1500 nM
IC50 [2]: 294 ± 38 nM
IC50 (NCI-H1437): 4700 nM
Mean metabolized (%) [3]: 0%
Structure (SMILES): O=C(/C=C/c1ccc2cccc(F)c2n1)c1ccncc1 [ACT-PFK-145, 3-(8-Fluoro-quinolin-2-yl)-1-pyridin-4-yl-propenone]

solubility at 24 h [1]: 300 µg/mL (≈ 1090 µM)
IC50 [2]: 811 ± 266 nM
Structure (SMILES): O=C(/C=C/c1ccc2cc(O)ccc2n1)c1ccncc1 [ACT-PFK-149, 3-(6-Hydroxy-quinolin-2-yl)-1-pyridin-4-yl-propenone]

solubility at 24 h [1]: 1900 µg/mL (≈ 6570 µM)
IC50 [2]: 289 ± 56 nM
Mean metabolized (%) [3]: 0%
Structure (SMILES): CNc1cccc2ccc(/C=C/C(=O)c3ccncc3)nc12 [ACT-PFK-151, 3-(8-Methylamino-quinolin-2-yl)-1-pyridin-4-yl-propenone]

IC50 [2]: 622 ± 39 nM
Mean metabolized (%) [3]: 0%
Structure (SMILES): Cc1ccc2ccc(/C=C/C(=O)c3ccncc3)nc2c1 [ACT-PFK-154, 3-(7-Methyl-quinolin-2-yl)-1-pyridin-4-yl-propenone]

Solubility stability, Amber Vials ([4]; 0 hrs): 1000 µg/mL
Solubility stability, Amber Vials ([4]; 2 hrs): No change
appearance of solution, Clear Vials ([4]; 2 hrs): Change in color
Solubility stability, Amber Vials ([4]; 4 hrs): No change
appearance of solution, Clear Vials ([4]; 4 hrs): Change in color
Solubility stability, Amber Vials ([4]; 8 hrs): No change
appearance of solution, Clear Vials ([4]; 8 hrs): Change in color
solubility at 0 h ([4]; Cremophor:EtOH:Saline solution, aqueous with cosolvent or surfactant or cyclodextrin, kinetic from dmso stock, 0 hrs): 1000 µg/mL
solubility at 2 h ([4]; Cremophor:EtOH:Saline solution, aqueous with cosolvent or surfactant or cyclodextrin, kinetic from dmso stock, 2 hrs): 900 µg/mL
solubility at 4 h ([4]; Cremophor:EtOH:Saline solution, aqueous with cosolvent or surfactant or cyclodextrin, kinetic from dmso stock, 4 hrs): 800 µg/mL
solubility at 8 h ([4]; Cremophor:EtOH:Saline solution, aqueous with cosolvent or surfactant or cyclodextrin, kinetic from dmso stock, 8 hrs): < 700 µg/mL
Structure (SMILES): O=C(/C=C/c1ccc2cccc(O)c2n1)c1ccncc1 [PFK-070, HCl, 3-(8-Hydroxy-quinolin-2-yl)-1-pyridin-4-yl-propenone]

solubility ([5]; pH = 5): 1700 µg/mL
solubility ([5]; pH = 7): 1900 µg/mL
Structure (SMILES): Cc1cccc2ccc(/C=C/C(=O)c3ccncc3)nc12 [PFK-141, HCl, 3-(8-Methyl-quinolin-2-yl)-1-pyridin-4-yl-propenone]

solubility ([5]; pH = 5): 2400 µg/mL
solubility ([5]; pH = 7): 3400 µg/mL
Structure (SMILES): Cc1ccc2ccc(/C=C/C(=O)c3ccncc3)nc2c1 [PFK-154, HCl, 3-(7-Methyl-quinolin-2-yl)-1-pyridin-4-yl-propenone]
